Source: US8148534B2, “Inhibitors of 11-beta-hydroxysteroid dehydrogenase 1” (Eli Lilly and Company, priority 2006, dated 2012)

What was measured:
[1] = tested on: cortisone to cortisol conversion in male C57BL/6 mice; assay: Acute In Vivo Cortisone Conversion Assay; settings: oral dose of 10 mg/kg, cortisone challenge 30 mg/kg s.c. after 16 hours, serum cortisol
Protocol: Acute In Vivo Cortisone Conversion Assay
In general, compounds are dosed orally into mice, the mice are challenged with a subcutaneous injection of cortisone at a set timepoint after compound injection, and the blood of each animal is collected some time later. Separated serum is then isolated and analyzed for levels of cortisone and cortisol by LC-MS/MS, followed by calculation of mean cortisol and percent inhibition of each dosing group. Specifically, male C57BL/6 mice are obtained from Harlan Sprague Dawley at average weight of 25 grams. Exact weights are taken upon arrival and the mice randomized into groups of similar weights. Compounds are prepared in 1% w-w HEC, 0.25% w-w polysorbate 80, 0.05% w-w Dow Corning antifoam #1510-US at various doses based on assumed average weight of 25 grams. Compounds are dosed orally, 200 μl per animal, followed by a subcutaneous dose, 200 μl per animal, of 30 mg/kg cortisone at 1 to 24 hours post compound dose. At 10 minutes post cortisone challenge, each animal is euthanized for 1 minute in a CO2 chamber, followed by blood collection via cardiac puncture into serum separator tubes. Once fully clotted, tubes are spun at 2500×g, 4° C. for 15 minutes, the serum transferred to wells of 96-well plates (Corning Inc, Costar #4410, cluster tubes, 1.2 ml, polypropylene), and the plates are frozen at −20° C. until analysis by LC-MS/MS. […]

[2] = target: T1, 11β-HSD1 in primary human aortic smooth muscle cells (AoSMC) (Homo sapiens, UniProt P28845); assay: Human Aortic Smooth Muscle Cell Assay (cortisone to cortisol conversion); assay type: cell-based; settings: hTNFα induced, cortisol by time resolved immunoassay
T1 construct: containing 12 ng/mL hTNFα to induce expression of 11β-HSD1; endogenous in cells; host or cells: primary human aortic smooth muscle cells (AoSMC), induced with hTNFα
T1 sequence (P28845 whole entry): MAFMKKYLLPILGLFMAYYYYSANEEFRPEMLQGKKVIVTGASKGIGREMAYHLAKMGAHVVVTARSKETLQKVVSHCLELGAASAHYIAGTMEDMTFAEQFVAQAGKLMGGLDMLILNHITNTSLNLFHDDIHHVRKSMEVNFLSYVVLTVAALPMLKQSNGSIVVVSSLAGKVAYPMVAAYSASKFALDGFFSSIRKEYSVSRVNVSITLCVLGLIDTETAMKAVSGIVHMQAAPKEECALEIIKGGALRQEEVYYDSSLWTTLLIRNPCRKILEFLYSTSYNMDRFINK
Protocol: Human Aortic Smooth Muscle Cell Assay
Primary human aortic smooth muscle cells (AoSMC) are cultured in 5% FBS growth medium to a passage number of 6, then pelleted by centrifugation and resuspended at a density of 9×10^4 cells/mL in 0.5% FBS assay medium containing 12 ng/mL hTNFα to induce expression of 11β-HSD1. Cells are seeded into 96-well tissue culture assay plates at 100 μL/well (9×10^3 cells/well) and incubated for 48 hours at 37° C., 5% CO2. Following induction, cells are incubated for 4 hours at 37° C., 5% CO2 in assay medium containing test compounds then treated with 10 μL/well of 10 μM cortisone solubilized in assay medium, and incubated for 16 hours at 37° C., 5% CO2. Medium from each well is transferred to a plate for subsequent analysis of cortisol using a competitive fluorescence resonance time resolved immunoassay. […] Higher levels of free cortisol result in diminishing energy transfer from the Europium-IgG to the APC-cortisol complex resulting in less APC fluorescence. Fluorescent intensities for Europium and APC are measured using a LJL Analyst AD. Europium and APC […] is measured using 360 nm excitation and 615 nm and 650 nm emission filters respectively. […] Fluorescent intensities measured for APC are modified by dividing by the Eu fluorescence (APC/Eu). […]

[3] = target: recombinant human 11β-HSD type 1 enzyme (Homo sapiens, UniProt P28845); assay: 11-β-HSD Type 1 Enzyme Assay (NADPH fluorescence); assay type: biochemical; settings: three hour incubation at room temperature, read-out: Human 11-βHSD1 IC50
Chain of recombinant human 11β-HSD type 1 enzyme (P28845 whole entry): as above
Protocol: 11-β-HSD Type 1 Enzyme Assay
Human 11-β-HSD type 1 activity is measured by assaying NADPH production by fluorescence assay. Solid compounds are dissolved in DMSO to a concentration of 10 mM. Twenty microliters of each are then transferred to a column of a 96-well polypropylene Nunc plate where they are further diluted 50-fold followed by subsequent two-fold titration, ten times across the plate with additional DMSO using a Tecan Genesis 200 automated system. Plates are then transferred to a Tecan Freedom 200 system with an attached Tecan Temo 96-well head and an Ultra 384 plate reader. Reagents are supplied in 96-well polypropylene Nunc plates and are dispensed individually into black 96-well Molecular Devices High Efficiency assay plates (40 μL/well capacity) in the following fashion: 9 μL/well of substrate (2.22 mM NADP, 55.5 μM Cortisol, 10 mM Tris, 0.25% Prionex, 0.1% Triton X100), 3 μL/well of water to compound wells or 3 μL to control and standard wells, 6 μL/well recombinant human 11β-HSD type 1 enzyme, 2 μL/well of compound dilutions. […] Plates are then shaken once more for 15 seconds then placed into an Ultra 384 microplate reader (355EX/460EM) for detection of NADPH fluorescence.

In the case of `O=C(c1ccc(-c2cc(Cl)c(C[C@@H]3CCN(N4CCCCC4)C3=O)c(Cl)c2)cc1)N1CCC(C(F)(F)F)CC1` [Example 1, (R)-3-[3,5-Dichloro-4′-(4-trifluoromethyl-piperidine-1-carbonyl)-biphenyl-4-ylmethyl]-1-piperidin-1-yl-pyrrolidin-2-one], the “% Inhibition after 16 hours (dose of 10 (mg/kg))” value [1] is reported as 78% and the IC50 [2] is reported as 16.8 nM.

`O=C(c1ccc(-c2cc(Cl)c(C[C@@H]3CCN(N4CCCCC4)C3=O)c(Cl)c2)cc1)N1CCC(O)CC1` [Example 2, (R)-3-[3,5-Dichloro-4′-(4-hydroxy-piperidine-1-carbonyl)-biphenyl-4-ylmethyl]-1-piperidin-1-yl-pyrrolidin-2-one] showed an IC50 [2] of 10.4 nM and an IC50 [3] of 357 nM.
